The results in this text go back to ChEMBL document CHEMBL1201862, “PubChem BioAssay data set” (2004).

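Exposure lasted 48 hours, with cells grown in 96-well plates and compounds tested at five concentrations. Here, GI50 denotes the concentration required for 50% inhibition of growth.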 Active and inactive are the calls of the source. No stated cut-off is given here; in the data, active = GI50 up to about 1.1 µM and inactive = higher.

Some test systems named below: SR; A549; TK-10; DLD-1; RPMI-8226; SF-295; EKVX; SW-620; OVCAR-3; UACC-257; OVCAR-4; IGROV-1; HT-29; CAKI-1; CCRF-CEM; HOP-92; DU-145; PC-3; MDA-MB-231; T47D.
Test in all cases: NCI anticancer screen, dose series, 48 h

As for `C=CC(=O)NCNC(=O)C=C`, the GI50 in the assay with SR, in the assay on A549, with TK-10, in the assay on DLD-1, in the assay on RPMI-8226 and in the assay on SF-295 was > 100 µM (inactive) in each case. Besides, the GI50 in the assay on EKVX, in the assay on SW-620, with OVCAR-3, with UACC-257, in the assay with OVCAR-4 and in the assay with IGROV-1 was > 100 µM (inactive) each time. In addition, the GI50 in the assay on HT-29, in the assay with CAKI-1, with CCRF-CEM and in the assay with HOP-92 was > 100 µM (inactive) throughout.
In the case of `CCCCCCCCCCCCC(=O)OC(c1cnco1)c1nc(C(O)CC(O)C(O)C(C)O)co1` (stereo not drawn), the GI50 was < 0.0407 µM (active) with SR; 0.264 µM (active) with A549; 5.62 µM (inactive) in the assay on TK-10; 0.946 µM (active) with DLD-1; > 10 µM (inactive) with DU-145; 2.22 µM (inactive) with PC-3. Also, the GI50 in the assay on RPMI-8226 is 0.273 µM (active); in the assay on MDA-MB-231, 1.89 µM (inactive); in the assay with SF-295, 0.467 µM (active); with EKVX, 11.8 µM (inactive); with SW-620 it was 0.114 µM (active); with T47D it was 4.71 µM (inactive). The GI50 in the assay with OVCAR-3 is 2.85 µM (inactive); in the assay with UACC-257, 0.755 µM (active); with OVCAR-4 it was 1.3 µM (inactive); in the assay on IGROV-1 it was 0.339 µM (active); in the assay with HT-29, 0.351 µM (active); in the assay with CAKI-1, 0.265 µM (active). For the same molecule, the GI50 in the assay on CCRF-CEM was 0.284 µM (active); with HOP-92, 1.34 µM (inactive).
`CC(C)(C)C[P+](C)(C)c1ccccc1`: the GI50 in the assay with SR is > 100 µM (inactive); in the assay with A549, 89.5 µM (inactive); in the assay on TK-10, > 100 µM (inactive); with DLD-1, > 100 µM (inactive); with RPMI-8226, > 100 µM (inactive); in the assay on SF-295, > 100 µM (inactive). Moreover, the GI50 with EKVX was > 100 µM (inactive); with SW-620, > 100 µM (inactive); in the assay on OVCAR-3, 91.2 µM (inactive); in the assay on UACC-257, > 100 µM (inactive); in the assay with OVCAR-4 it was > 100 µM (inactive); with IGROV-1 it was > 100 µM (inactive). Besides, the GI50 in the assay with HT-29, in the assay with CAKI-1, in the assay with CCRF-CEM and in the assay with HOP-92 was > 100 µM (inactive) throughout.
For the molecule `COC1=C(C)C(=O)C2=C(C1=O)C1C3CC4=C(C(=O)C(OC)=C(C)C4=O)C(CNC(=O)C(C)O)N3C(C#N)C(C2)N1C` (stereo not drawn), the GI50 was < 0.01 µM (active) in the assay on SR; 0.166 µM (active) with A549; 0.0353 µM (active) with TK-10; < 0.01 µM (active) with DLD-1; 0.016 µM (active) with DU-145; < 0.011 µM (active) with PC-3. The GI50 with RPMI-8226 is < 0.01 µM (active); with MDA-MB-231, < 0.01 µM (active); in the assay with SF-295, 0.0579 µM (active); with EKVX, 0.0199 µM (active); in the assay on SW-620 it was < 0.01 µM (active); in the assay with T47D, < 0.01 µM (active). Further, the GI50 in the assay with OVCAR-3 is < 0.01 µM (active); in the assay with UACC-257, < 0.01 µM (active); in the assay on OVCAR-4 it was 0.026 µM (active); in the assay with IGROV-1 it was < 0.01 µM (active); in the assay on HT-29, < 0.01 µM (active); in the assay on CAKI-1, 0.037 µM (active). Further, the GI50 with CCRF-CEM and in the assay on HOP-92 was < 0.01 µM (active) throughout.
For the molecule `Cc1ccc(-n2c(=S)[nH]c3ccc(Br)cc3c2=O)cc1`, the GI50 with SR was > 100 µM (inactive); in the assay with A549, > 100 µM (inactive); with TK-10, > 100 µM (inactive); in the assay with DLD-1, 67.9 µM (inactive); in the assay on RPMI-8226, > 100 µM (inactive); in the assay on SF-295 it was > 100 µM (inactive). The GI50 with EKVX, in the assay with SW-620, in the assay on OVCAR-3, in the assay with UACC-257, in the assay on OVCAR-4 and with IGROV-1 was > 100 µM (inactive) each time. The GI50 in the assay on HT-29 and with HOP-92 was > 100 µM (inactive) each time.
Consider `c1nc(N2CC2)c2cnn(C3CCCCO3)c2n1` (stereo not drawn), for which the GI50 in the assay with SR, in the assay with A549, with TK-10, in the assay with DLD-1, with DU-145 and in the assay with PC-3 was > 100 µM (inactive) throughout. The GI50 with RPMI-8226, with MDA-MB-231, with SF-295, in the assay with EKVX, with SW-620 and in the assay with T47D was > 100 µM (inactive) in each case. Also, the GI50 with OVCAR-3, in the assay with UACC-257, with OVCAR-4, with IGROV-1, with HT-29 and in the assay with CAKI-1 was > 100 µM (inactive) throughout. Moreover, the GI50 in the assay with CCRF-CEM and with HOP-92 was > 100 µM (inactive) each time.
Turning to `O=C(CCc1nnc(S)[nH]1)Nc1ccc(Cl)c(Cl)c1`, the GI50 in the assay on SR is 51.2 µM (inactive); in the assay with A549, 40.9 µM (inactive); with TK-10 it was 79.4 µM (inactive); in the assay on DLD-1, > 100 µM (inactive); with RPMI-8226 it was > 100 µM (inactive); in the assay on SF-295 it was 50.6 µM (inactive). For the same molecule, the GI50 in the assay with EKVX is > 100 µM (inactive); with SW-620 it was 41.3 µM (inactive); with OVCAR-3, 40.6 µM (inactive); in the assay on UACC-257, 34.8 µM (inactive); with OVCAR-4, 58.2 µM (inactive); with IGROV-1, 26.5 µM (inactive). For the same molecule, the GI50 was > 100 µM (inactive) in the assay on HT-29, > 100 µM (inactive) with CAKI-1, 80.4 µM (inactive) in the assay on CCRF-CEM and 53.2 µM (inactive) with HOP-92.
Regarding `CC[n+]1c(/C=C/c2ccc(N(CCCl)CCCl)cc2)ccc2cc(Br)ccc21`, the GI50 is 1.46 µM (inactive) in the assay with SR; 3.52 µM (inactive) with A549; 4.48 µM (inactive) in the assay on TK-10; 2.71 µM (inactive) with DLD-1; 2.53 µM (inactive) in the assay on RPMI-8226; 2.65 µM (inactive) with SF-295. For the same molecule, the GI50 in the assay on EKVX is 3.52 µM (inactive); with SW-620, 1.93 µM (inactive); with OVCAR-3, 0.587 µM (active); with UACC-257 it was 1.11 µM (active); in the assay with OVCAR-4, 1.01 µM (active); with IGROV-1, 0.574 µM (active). The GI50 was 2.86 µM (inactive) in the assay with HT-29, 2.62 µM (inactive) in the assay on CAKI-1, 0.345 µM (active) in the assay on CCRF-CEM and 1.06 µM (active) in the assay on HOP-92.
